Data on 14 molecules can be found in patent US12582619B2 (priority 2020, dated 2026).

“Also recorded” adds a separate entry of the source.

A word on the IC50: it is the point on the concentration scale where inhibition reaches its midpoint. Low values mean greater potency, high ones weaker potency. Broadly, the Ki is the dissociation constant of the complex between target and ligand, obtained from inhibition or displacement. A lower Ki goes with higher affinity.

The target in series [1] is T1, Androgen Receptor (Homo sapiens, UniProt P10275).
T1 sequence (P10275 1-920): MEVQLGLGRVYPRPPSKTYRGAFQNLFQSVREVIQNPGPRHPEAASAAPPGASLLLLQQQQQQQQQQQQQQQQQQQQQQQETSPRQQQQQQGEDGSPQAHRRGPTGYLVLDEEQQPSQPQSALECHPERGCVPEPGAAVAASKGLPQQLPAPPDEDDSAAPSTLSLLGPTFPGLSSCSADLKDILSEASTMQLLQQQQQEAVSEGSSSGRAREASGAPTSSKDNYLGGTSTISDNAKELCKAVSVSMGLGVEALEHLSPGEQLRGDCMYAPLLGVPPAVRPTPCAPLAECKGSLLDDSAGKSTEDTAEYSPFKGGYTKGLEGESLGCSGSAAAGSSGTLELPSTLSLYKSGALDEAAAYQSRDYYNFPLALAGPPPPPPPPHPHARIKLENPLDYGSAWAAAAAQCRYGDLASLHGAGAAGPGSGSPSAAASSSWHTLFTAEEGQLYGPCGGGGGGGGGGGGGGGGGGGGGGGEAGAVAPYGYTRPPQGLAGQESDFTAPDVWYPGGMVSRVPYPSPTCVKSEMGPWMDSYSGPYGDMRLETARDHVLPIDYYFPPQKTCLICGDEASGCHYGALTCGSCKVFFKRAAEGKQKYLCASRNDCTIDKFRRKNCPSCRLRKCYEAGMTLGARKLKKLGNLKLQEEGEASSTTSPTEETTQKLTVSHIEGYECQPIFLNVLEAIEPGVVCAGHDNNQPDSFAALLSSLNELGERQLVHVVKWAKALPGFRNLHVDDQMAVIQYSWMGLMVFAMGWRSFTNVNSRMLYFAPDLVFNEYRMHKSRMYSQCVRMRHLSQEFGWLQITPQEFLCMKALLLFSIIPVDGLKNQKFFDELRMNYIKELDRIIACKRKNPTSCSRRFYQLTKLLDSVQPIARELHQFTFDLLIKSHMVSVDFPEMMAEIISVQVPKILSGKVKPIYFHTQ

In another series the test system is Powassan Virus. It is filed as cell-based. Conditions: U2OS, MOI 1, ~16-18 hours; CT110 10 μM, CT1107 2.5-10 μM, FIG. 12.
Another series concerns Zika Virus. The experiment in a line: Zika virus infection of U2OS cells, qPCR. Format: cell-based. Conditions: MOI 1, ~16-18 hours, CT110 10 μM, CT1107 2.5-10 μM, FIG. 11. How it is done: U2OS cells were treated with DMSO or 10 μM of CT110 (also known as CT189, left graph) or DMSO or 2.5 μM, 5 μM, 7.5 μM, and 10 μM CT1107 (right graph). 2 hours after starting treatment, U2OS cells were infected with a multiplicity of infection (MOI) of 1 for Zika Virus and incubated at 37° C. for ˜16-18 hours. Cells were harvested with Trizol and RNA was extracted for qPCR. Y-axis indicates fold change in infection.
On the technique in general: In qPCR the cycle at which signal appears reflects the starting amount.

A further series deals with Dengue Virus. The experiment in a line: Dengue virus infection of U2OS cells, qPCR. Format: cell-based. Conditions: MOI 1, ~16-18 hours, CT110 10 μM, CT1107 2.5-10 μM, FIG. 10. As to the method:
U2OS cells were treated with DMSO or 10 μM of CT110 (also known as CT189, left graph) or DMSO or 2.5 μM, 5 μM, 7.5 μM, and 10 μM CT1107 (right graph). 2 hours after starting treatment, U2OS cells were infected with a multiplicity of infection (MOI) of 1 for Dengue Virus and incubated at 37° C. for ˜16-18 hours. Cells were harvested with Trizol and RNA was extracted for qPCR. Y-axis indicates fold change in infection.

In series [2] the test system is SARS-CoV-2. The experiment in a line: Infection of Huh7.5 cells by replication competent SARS-CoV-2, qRT-PCR. It is filed as cell-based. The conditions noted are these: 10 μM, 24 hours post inoculation. As to the method:
FIG. 3 illustrates the finding that only certain Sigma1 inhibitors block SARS-CoV-2 infection. […] Results can be compared to vehicle (DMSO), Remdesivir (Rem, 10 μM), and hydroxychloroquine (HCQ, 10 μM). Compounds and SARS-CoV-2 were added to cell culture; 24 hours post inoculation relative infection calculated by qRT-PCR.
A discrete set of Sigma1 modulators was tested in an assay of replication competent SARS-CoV-2 infectivity. […] Strikingly, IPAG, CT189, and CT1107 blocked SARS-CoV-2 infection by 1,000 (IPAG, CT189, CT360) to 10,000 (CT1107) fold.

Series [3] has as its target T1, Androgen Receptor. The experiment in a line: cell-based.
In a further series the target is Sigma1 (Homo sapiens, UniProt Q99720). The series can be described thus: Sigma1 binding, Ki.
The next series relates to human TMPRSS2. It is filed as cell-based. The conditions noted are these: Vero E6 lysates, 10 μM, FIG. 7.
The test system of series [4] is VeroE6 cells stably expressing TMPRSS2. The series can be described thus: Toxicity in VeroE6/TMPRSS2 cells. Format: cell-based. The conditions noted are these: VeroE6/TMPRSS2 cells, 5, 7.5, 10 μM. As to the method: (§1) It was tested whether Sigma1-targeting compounds are antiviral in additional cell lines. VeroE6 cells stably expressing TMPRSS2and Caco-2 (human colorectal epithelial cells) were tested. […] In certain embodiments, these compounds are antiviral in primary respiratory epithelial cells.

The subject of series [5] is Vero E6 cells expressing SARS-CoV-2 spike and human TMPRSS2. It is filed as cell-based. Conditions: Vero E6, 10 μM vs DMSO.
The subject of series [6] is SARS-CoV-2. The experiment in a line: SARS-CoV-2 infection of VeroE6/TMPRSS2 cells, qRT-PCR. Conditions: VeroE6/TMPRSS2 cells, 5, 7.5, 10 μM, 48 hours, FIG. 8. Format: cell-based. As to the method:
(§2) FIG. 8 illustrates results obtained when VeroE6/TMPRSS2 or Caco2 cells were treated with DMSO or 5 μM, 7.5 μM, and 10 μM CT1107 and infected with SARS-CoV-2 for 48 hours. RNA was isolated and qRT-PCR was performed with virus-specific and 18S primers. Viral RNA was normalized to 18S RNA.
as §1

Series [7] concerns Caco-2 (human colorectal epithelial cells). The experiment in a line: Toxicity in Caco-2 cells. Format: cell-based. The conditions noted are these: Caco-2 cells, 5, 7.5, 10 μM. As to the method: as §1
For series [8], the system named is SARS-CoV-2. The series can be described thus: SARS-CoV-2 infection of Caco2 cells, qRT-PCR. It is filed as cell-based. The conditions noted are these: Caco2 cells, 5, 7.5, 10 μM, 48 hours, FIG. 8. How it is done:
as §2, §1

Sigma1, sequence (Q99720 whole entry): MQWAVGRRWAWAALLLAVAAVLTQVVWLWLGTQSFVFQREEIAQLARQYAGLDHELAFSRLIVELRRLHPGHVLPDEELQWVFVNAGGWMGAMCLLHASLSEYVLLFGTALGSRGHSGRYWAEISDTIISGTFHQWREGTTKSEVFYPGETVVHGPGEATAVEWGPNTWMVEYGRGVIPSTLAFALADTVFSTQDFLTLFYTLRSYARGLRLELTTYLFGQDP

As for `N=C(NCCCOc1ccc(F)cc1)Nc1ccc(Cl)cc1` [CT189], the “dihydrotesterone (DHT) induced AR transcriptional activity” value on Androgen Receptor [1] is “inhibition”. The “Powassan virus infection (fold change in infection)” value in the series on Powassan Virus is “inhibit Powassan virus infection”. Besides, in the series on Zika Virus, the “Zika virus infection (fold change in infection)” value is on record as “inhibit Zika virus infection”. Also, the “Dengue virus infection (fold change in infection)” value in the series with Dengue Virus was “inhibit dengue virus infection”. Also, in the series with SARS-CoV-2 [2] (FIG. 3), the “blocked SARS-CoV-2 infection, fold” value is on record as 1,000 fold and the “effect on SARS-CoV-2 infection (in words)” value (“effect … (in words)” below) was “suppressed SARS-CoV-2 infection; also recorded: inhibit SARS-CoV-2 infection”.
Turning to `COc1cc(NC(=N)NCCC(C)(C)Oc2ccc(C(F)(F)F)cc2)cnc1C#N` [Compound A, 1-(6-cyano-5-methoxypyridin-3-yl)-3-(3-methyl-3-(4-(trifluoromethyl)phenoxy)butyl)guanidine], the IC50 on Androgen Receptor [3] worked out at 8100 nM. Further, on Sigma1, the inhibition constant Ki is 9 nM.
For the molecule `COc1cc(NC(=N)NCC(C)(C)COc2ccc(C(F)(F)F)cc2)cnc1C#N` [Compound B, 1-(6-cyano-5-methoxypyridin-3-yl)-3-(2,2-dimethyl-3-(4-(trifluoromethyl)phenoxy)propyl)guanidine], the IC50 against Androgen Receptor [3] worked out at 10000 nM. For the same molecule, the affinity on Sigma1 corresponds to a Ki of 6 nM.
In turn, `CC(C)(CCNC(=N)Nc1ccc(Cl)c(Cl)c1)Oc1ccc(C(F)(F)F)cc1` [Compound D, 1-(3,4-dichlorophenyl)-3-(3-methyl-3-(4-(trifluoromethyl)phenoxy)butyl)guanidine] returned an IC50 at Androgen Receptor [3] of 3000 nM. The molecule also showed an inhibition constant (Ki) on Sigma1 of 8 nM.
Turning to `CC(C)(CCNC(=N)Nc1cnc(Cl)c(F)c1)Oc1ccc(C(F)(F)F)cc1` [Compound E, 1-(6-chloro-5-fluoropyridin-3-yl)-3-(3-methyl-3-(4-(trifluoromethyl)phenoxy)butyl)guanidine], the concentration for half-maximal inhibition (IC50) on Androgen Receptor [3] turned out to be 5000 nM. Besides, at Sigma1, the affinity, expressed as Ki, was 5 nM.
For `COc1cc(NC(=N)NCCC(C)(C)c2ccc(C(F)(F)F)cc2)ncc1C#N` [Compound F, 1-(5-cyano-4-methoxypyridin-2-yl)-3-(3-methyl-3-(4-(trifluoromethyl)phenyl)butyl)guanidine], the TMPRSS2 protein level entry with human TMPRSS2 is listed as “clear decrease”. Also, the toxicity result in series [4] and in series [7] was “without toxicity” throughout. Besides, in series [5] (FIG. 5), the number of syncytia result is “significant decrease”. Besides, the “size of syncytia (number of nuclei per syncytia)” value in [5] (FIG. 6) is recorded as “significant decrease”. The “antiviral effect on SARS-CoV-2” value in the series with SARS-CoV-2 [6] and with SARS-CoV-2 [8] was “potently antiviral” each time. The molecule further displayed an IC50 against Androgen Receptor [3] of 3000 nM. The “Powassan virus infection (fold change in infection)” value in the series on Powassan Virus was “inhibit Powassan virus infection”. In addition, the “Zika virus infection (fold change in infection)” value with Zika Virus is on record as “inhibit Zika virus infection”. Further, in the series on Dengue Virus, the “Dengue virus infection (fold change in infection)” value is reported as “inhibit dengue virus infection”. Further, in the series with SARS-CoV-2 [2] (FIG. 3), the “blocked SARS-CoV-2 infection, fold” value is 10,000 fold. Also, the “effect … (in words)” value in the series with SARS-CoV-2 [2] (FIG. 3, listed as CT1107) was “suppressed SARS-CoV-2 infection; also recorded: inhibit SARS-CoV-2 infection; also recorded: most potent inhibitor of CoV-2 infection”. Further, the affinity on Sigma1, expressed as Ki, was 11 nM.
The molecule `COC(=O)c1ccc(NC(=N)NCCC(C)(C)c2ccc(C(F)(F)F)cc2)nc1` [Compound G, methyl 6-(3-(3-methyl-3-(4-(trifluoromethyl)phenyl)butyl)guanidino)nicotinate] registered an IC50 against Androgen Receptor [3] of 2800 nM. On Sigma1, this molecule yielded an inhibition constant Ki of 3 nM.
On to `COC(=O)c1ccc(NC(=N)NCC(C)(C)COc2ccc(C(F)(F)F)cc2)nc1` [Compound H, methyl 6-(3-(2,2-dimethyl-3-(4-(trifluoromethyl)phenoxy)propyl)guanidino)nicotinate], for which, at Androgen Receptor [3], 2900 nM corresponded to half-maximal inhibition (IC50). Also, in the series with SARS-CoV-2 [2] (FIG. 3), the “blocked SARS-CoV-2 infection, fold” value is recorded as 1,000 fold and the “effect … (in words)” value is recorded as “inhibit SARS-CoV-2 infection”. In addition, the Ki at Sigma1 was 18 nM.
The molecule `CC(C)(CCNC(=N)Nc1cnc(C(F)(F)F)nc1)Oc1ccc(C(F)(F)F)cc1` [Compound I, 1-(3-methyl-3-(4-(trifluoromethyl)phenoxy)butyl)-3-(2-(trifluoromethyl)pyrimidin-5-yl)guanidine] returned a 50% inhibitory concentration (IC50) on Androgen Receptor [3] of 10500 nM. This molecule returned an inhibition constant (Ki) on Sigma1 of 35 nM.
Regarding `COc1cc(NC(=N)NCCC(C)(C)Oc2ccc(C(F)(F)F)cc2)cnc1C#N` [Compound J, 1-(6-cyano-5-methoxypyridin-3-yl)-3-(3-methyl-3-(4-(trifluoromethyl)phenoxy)butyl)guanidine], it took 8500 nM to reach half-maximal inhibition on Androgen Receptor [3] (IC50). The same molecule yielded a Ki on Sigma1 of 7 nM.
On to `Cc1cc(OCCN2CCOCC2)nn1-c1ccc2ccccc2c1` [Compound S1RA, 4-[2-[[5-methyl-1-(2-naphthalenyl)-1H-pyrazol-3-yl]oxy]ethyl]morpholine, reference compound], for which, in the series with SARS-CoV-2 [2] (FIG. 3), the “effect … (in words)” value is on record as “did not block infection; also recorded: does not block infection”.
Same read-out and setting: under `O=C(OCCN1CCOCC1)C1(c2ccccc2)CCCCC1` [PRE084, 2-morpholin-4-ylethyl 1-phenylcyclohexane-1-carboxylate, reference compound] stands “did not block infection”; under `COc1ccc(CCN2CCN(CCCc3ccccc3)CC2)cc1OC` [SA4503, 1-(3,4-dimethoxyphenethyl)-4-(3-phenylpropyl) piperazine, reference compound], “did not block infection”.
Consider `O=C(CCCN1CCC(O)(c2ccc(Cl)cc2)CC1)c1ccc(F)cc1` [haloperidol, 4-[4-(4-chlorophenyl)-4-hydroxypiperidin-1-yl]-1-(4-fluorophenyl)butan-1-one, reference compound], for which the “effect … (in words)” value with SARS-CoV-2 [2] (FIG. 3) is “suppressed SARS-CoV-2 infection”; with SARS-CoV-2 [2] (FIG. 3, listed as Haloperidol), “clear but modest antiviral effect”.
